One sequence from ChEMBL document CHEMBL2074557 (Drug Metab Dispos, 1999) can be followed below.

This data set concerns the target ATP-dependent translocase ABCB1 (Mus musculus, UniProt P21447). Kind of data set: TP_TRANSPORTER: increase in plasma concentration in PGP(-/-) mouse. It is filed as functional, organism-based. The note with it: in vivo.

Sequence of ATP-dependent translocase ABCB1 (P21447 whole entry): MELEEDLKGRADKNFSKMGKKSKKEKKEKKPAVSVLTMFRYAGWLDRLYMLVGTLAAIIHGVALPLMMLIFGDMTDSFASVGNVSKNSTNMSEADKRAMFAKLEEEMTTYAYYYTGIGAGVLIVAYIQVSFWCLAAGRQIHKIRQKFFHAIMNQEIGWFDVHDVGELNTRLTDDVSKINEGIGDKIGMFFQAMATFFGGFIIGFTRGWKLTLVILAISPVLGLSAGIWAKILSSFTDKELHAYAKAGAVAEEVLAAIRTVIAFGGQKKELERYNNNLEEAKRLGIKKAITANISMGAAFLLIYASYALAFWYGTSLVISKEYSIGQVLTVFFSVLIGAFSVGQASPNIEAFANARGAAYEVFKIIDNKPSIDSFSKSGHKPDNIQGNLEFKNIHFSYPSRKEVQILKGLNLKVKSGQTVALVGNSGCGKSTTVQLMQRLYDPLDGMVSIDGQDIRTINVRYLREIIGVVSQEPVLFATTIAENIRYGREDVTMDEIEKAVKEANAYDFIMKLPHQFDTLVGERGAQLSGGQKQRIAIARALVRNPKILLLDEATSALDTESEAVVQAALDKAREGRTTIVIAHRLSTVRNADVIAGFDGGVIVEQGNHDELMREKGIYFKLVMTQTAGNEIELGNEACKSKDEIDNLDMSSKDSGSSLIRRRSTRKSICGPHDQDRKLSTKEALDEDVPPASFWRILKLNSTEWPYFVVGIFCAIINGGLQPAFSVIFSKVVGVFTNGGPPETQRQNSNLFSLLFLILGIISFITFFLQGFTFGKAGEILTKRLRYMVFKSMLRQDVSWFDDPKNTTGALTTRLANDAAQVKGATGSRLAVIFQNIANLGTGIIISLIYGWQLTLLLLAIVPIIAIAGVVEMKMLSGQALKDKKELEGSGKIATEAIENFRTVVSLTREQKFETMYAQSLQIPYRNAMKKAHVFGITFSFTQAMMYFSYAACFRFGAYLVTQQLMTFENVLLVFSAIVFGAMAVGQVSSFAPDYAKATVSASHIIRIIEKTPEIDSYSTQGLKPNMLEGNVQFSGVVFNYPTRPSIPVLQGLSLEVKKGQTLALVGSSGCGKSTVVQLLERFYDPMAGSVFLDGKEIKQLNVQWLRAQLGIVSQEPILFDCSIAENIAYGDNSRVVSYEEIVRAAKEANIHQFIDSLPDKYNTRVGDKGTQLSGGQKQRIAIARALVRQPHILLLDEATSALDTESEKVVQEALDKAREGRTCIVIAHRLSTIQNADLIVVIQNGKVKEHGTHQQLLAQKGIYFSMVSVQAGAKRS

For the sequence IVERMECTIN, the Activity entry was “substrate [+]”.
